Source: patent US20230203064A1, “TRICYCLIC COMPOUNDS AS INHIBITORS OF NLRP3” (JANSSEN PHARMACEUTICA NV, priority 2020, published 2023)

How the values were obtained:
TNF = assay: PBMC assay: TNF cytokine level after LPS stimulation; assay type: cell-based; settings: human PBMCs, 30 min pre-incubation, 100 ng/ml LPS for 6 hrs, supernatant, MSD technology
Experimental: (§1) Peripheral venous blood was collected from healthy individuals and human peripheral blood mononuclear cells (PBMCs) were isolated from blood by Ficoll-Histopaque (Sigma-Aldrich, A0561) density gradient centrifugation. After isolation, PBMCs were stored in liquid nitrogen for later use. Upon thawing, PBMC cell viability was determined in growth medium (RPMI media supplemented with 10% fetal bovine serum, 1% Pen-Strep and 1% L-glutamine). Compounds were spotted in a 1:3 serial dilution in DMSO and diluted to the final concentration in 30 μl medium in 96 well plates (Falcon, 353072). PBMCs were added at a density of 7.5×10^4 cells per well and incubated for 30 min in a 5% CO2 incubator at 37° C. LPS stimulation was performed by addition of 100 ng/ml LPS (final concentration, Invivogen, tirl-smips) for 6 hrs followed by collection of cellular supernatant and the analysis of IL-1β (μM) and TNF cytokines levels (μM) via MSD technology according to manufacturers' guidelines (MSD, K151A0H).
The IC50 values (for IL-1β) and EC50 values (TNF) were obtained on compounds of the invention/examples, and are depicted in the following table: […]

IL-1β = assay: PBMC assay: IL-1β release after LPS stimulation (NLRP3 inflammasome activity); assay type: cell-based; settings: human PBMCs, 30 min pre-incubation, 100 ng/ml LPS for 6 hrs, supernatant, MSD technology
Experimental: as §1

Structure (SMILES)	EC50 (TNF) [nM]	melting point [°C]	IC50 (IL-1β) [nM]
CCN(C)c1nn(CC(=O)Nc2ccncn2)c(=O)c2cc3scnc3n12 [Final Cpd 1, 2-[12-[ethyl(methyl)amino]-9-oxo-5-thia-1,3,10,11-tetrazatricyclo-[6.4.0.02,6]dodeca-2(6),3,7,11-tetraen-10-yl]-N-pyrimidin-4-yl-acetamide]	8560	214.8	360
CN(C)c1nn(CC(=O)Nc2ccncn2)c(=O)c2cc3scnc3n12 [Final Cpd 2]	> 10000	248.3	< 120
COCCN(C)c1nn(CC(=O)Nc2ccncn2)c(=O)c2cc3sccc3n12 [Final Cpd 3]	> 10000		660
CCCN(C)c1nn(CC(=O)Nc2ccncn2)c(=O)c2cc3sccc3n12 [Final Cpd 4]	> 10000		320
CNc1nn(CC(=O)Nc2ccncn2)c(=O)c2cc3sccc3n12 [Final Cpd 5]	> 10000		210
CCN(C)c1nn(CC(=O)Nc2ccncn2)c(=O)c2cc3sccc3n12 [Final Cpd 6]	> 10000		250
CN(C)c1nn(CC(=O)Nc2ccncn2)c(=O)c2cc3sccc3n12 [Final Cpd 7]	> 10000		< 120
CCCN(C)c1nn(CC(=O)Nc2ccncn2)c(=O)c2cc3scnc3n12 [Final Cpd 8]	> 10000	196.7	280

The next lines start with the values.

EC50 (TNF) [nM]	melting point [°C]	IC50 (IL-1β) [nM]	Structure (SMILES)
> 10000	221.7	< 120	CN(C)c1nn(CC(=O)N[C@H]2C[C@@](C)(O)C2)c(=O)c2cc3scnc3n12 [Final Cpd 9]
> 10000	263.5	270	CNc1nn(CC(=O)Nc2ccncn2)c(=O)c2cc3scnc3n12 [Final Cpd 10]
> 10000			CN(C)c1nn(CC(=O)N[C@H]2C[C@@](C)(O)C2)c(=O)c2cc3sccc3n12 [Final Cpd 11, 2-(5-(dimethylamino)-8-oxothieno[2′,3′:4,5]pyrrolo[1,2-d][1,2,4]triazin-7(8H)-yl)-N-((1s,3s)-3-hydroxy-3-methylcyclobutyl)acetamide]
6970		20	CN(C)c1nn(CC(=O)Nc2ccc3nncn3n2)c(=O)c2cc3sc(Cl)cc3n12 [Final Cpd 12, N-([1,2,4]triazolo[4,3-b]pyridazin-6-yl)-2-(2-chloro-5-(dimethylamino)-8-oxothieno[2′,3′:4,5]pyrrolo[1,2-d][1,2,4]triazin-7(8H)-yl)acetamide]
